The record followed here is publication PMC12153338, “Resistance to oxyimino-cephalosporins conferred by an alternative mechanism of hydrolysis by the Acinetobacter-derived cephalosporinase-33 (ADC-33), a class C β-lactamase present in carbapenem-resistant Acinetobacter baumannii (CRAb)” (mBio, 2025).

Values after ≈ are worked out from the molar mass of the structure shown. A value given as a limit tells only on which side of the number the result lay.

Test [1] concerns ADC-217 in DH10B Escherichia coli. In words: MIC by broth microdilution, ADC-217 in DH10B E. coli. Type of test: cell-based. The following applies: DH10B E. coli expressing ADC-217 (non-Adup) from pBCSK−, FDC in iron-depleted cation-adjusted MH broth, mode of triplicate. The method, then: (§1) Susceptibility testing to standard antibiotics was performed by broth microdilution according to 2024 Clinical and Laboratory Standards Institute (CLSI) guidelines ([38]). MICs for FDC were done in iron-depleted cation-adjusted Mueller-Hinton (MH) broth according to CLSI methods. All MICs were interpreted according to the 2024 CLSI guidelines ([38]). MICs are done in triplicate, and the mode MIC value is reported.
(§2) blaADC-7 pBCSK− was cloned and expressed in E. coli DH10B cells as previously described for MIC determinations ([3]). The pBCSK-non-inducible phagemid vector has a chloramphenicol resistance gene used to aid selection. All other blaADC variants were synthesized by GenScript according to the blaADC-7 pBCSK− strategy, cloning into the XbaI/BamHI sites of the pBCSK− vector ([5]).
In general terms: In broth dilution the organism is exposed to a series of concentrations in liquid medium.

The subject of test [2] is ADC-218 in DH10B Escherichia coli. Description: MIC by broth microdilution, ADC-218 in DH10B E. coli. In kind it is cell-based. The following applies: DH10B E. coli expressing ADC-218 (Adup) from pBCSK−, FDC in iron-depleted cation-adjusted MH broth, mode of triplicate. The protocol:
as §1, §2

The next test addresses ADC-30 (Acinetobacter baumannii, UniProt A7XM81). In words: Timed electrospray ionization mass spectrometry of acylated adducts, ADC-30. Type of test: binding. The note with it: ADC-30, +468 Da adduct, at 1 h; enzyme:substrate 1:25. The protocol: β-Lactamase (5 µg) was incubated with substrate at a molar ratio of 1:25 (FDC, CAZ, meropenem [MEM]) in sterile 10 mM PBS, pH 7.4, for a total reaction volume of 20 µL (t = 30 s, 1 min, 15 min, 30 min, 1 h, 2 h, and 24 h). Reactions were quenched with 1% acetonitrile and 0.1% formic acid. Samples were analyzed using Q-TOF Waters Synapt-G2-Si and a Waters Acquity ultrapressure liquid chromatography BEH C18 column (1.7 µm […]; 2.1 × 50 mm). MassLynx v.4.1 was used to deconvolute protein peaks. The tune settings for each data run were as follows: capillary voltage at 3.5 kV, sampling cone at 35, source offset at 35, source temperature 100°C, desolvation temperature 500°C, cone gas at 100 L/h, desolvation gas at 800 L/h, and nebulizer bar at 6.0. Mobile phase A was 0.1% formic acid-water. Mobile phase B was 0.1% formic acid-acetonitrile. The mass accuracy for this system is ±5 Da. Mass spectrometry experiments were performed once over a range of time points.

Test [3] concerns ADC-172 in DH10B Escherichia coli. Description: MIC by broth microdilution, ADC-172 in DH10B E. coli. Type of test: cell-based. The following applies: Escherichia coli; DH10B E. coli expressing ADC-172 (Adup) from pBCSK−; FDC in iron-depleted cation-adjusted MH broth; mode of triplicate; read-out: MIC. The method, then: as §1, §2
Test [4] relates to ADC-33 in DH10B Escherichia coli. In words: MIC by broth microdilution, ADC-33 in DH10B E. coli. In kind it is cell-based. The following applies: DH10B E. coli expressing ADC-33 (Adup) from pBCSK−, FDC in iron-depleted cation-adjusted MH broth, mode of triplicate. The protocol: as §1, §2
For another test, the target named is ADC-172 (Acinetobacter baumannii, UniProt A7Y407, N321K). In words: Competition kinetics with nitrocefin (Ki), ADC-172. Type of test: biochemical. The note with it: 3 min pre-incubation, Cheng-Prusoff corrected. The method, then:
For inhibition kinetics, utilizing NCF as a colorimetric substrate of ADCs, the inhibition constant (Ki) of CAZ and FDC with ADCs was determined using competition kinetics as previously described ([5]). After a 3 min pre-incubation of the enzyme (2 nM) with increasing concentration of the inhibitor, measurements of the initial velocities were performed with the addition of 100–200 µM NCF (twofold of the experimentally determined KM value). To determine the average velocities (v0), data from three experiments were fit to the followingequation: […]
where vu represents the NCF uninhibited velocity and IC50 represents the inhibitor concentration that results in a 50% reduction of vu. The Ki value was corrected for the NCF affinity (KM values for each ADC) with the Cheng-Prusoff ([5]) equation: […]
The standard error for Ki values was generated by factoring in the larger of the proportional standard errors for the individual IC50 value and the KM -NCF value.

Test [5] has as its system ADC-30 in DH10B Escherichia coli. In words: MIC by broth microdilution, ADC-30 in DH10B E. coli. In kind it is cell-based. The following applies: DH10B E. coli expressing ADC-30 (non-Adup) from pBCSK−, FDC in iron-depleted cation-adjusted MH broth, mode of triplicate. The protocol:
as §1, §2

The subject of test [6] is DH10B Escherichia coli pBCSK− no insert. Description: MIC by broth microdilution, DH10B E. coli with pBCSK− no insert. In kind it is cell-based. The note with it: DH10B E. coli with pBCSK− no insert (control strain), FDC in iron-depleted cation-adjusted MH broth. The protocol:
as §1, §2

Test [7] concerns ADC variants in DH10B Escherichia coli. In words: MIC, statements across ADC variants in E. coli. Type of test: cell-based. The method, then: as §1, §2
Another test addresses ADC-33 (Acinetobacter baumannii, UniProt A7Y407). Description: Steady-state hydrolysis kinetics, ADC-33. In kind it is biochemical. The method, then: Steady-state kinetic parameters were determined by combining pure enzyme with antibiotic substrates in 50 mM NaH2PO4, pH 7.4, at room temperature. Changes in absorbance were measured on the Cary 60 UV−Vis spectrophotometer (Agilent Technologies) and converted to velocity using the change in extinction coefficient specific to nitrocefin (NCF) (ε482 = 17,400 M^−1·cm^−1), CAZ (ε260 8,660 M^−1·cm^−1), and cefiderocol (ε259 9,430 M^−1·cm^−1). The concentration of enzyme ranged from 0.1 to 1.0 µM, and all kinetic experiments were performed at least in triplicate. Initial velocities were fitted to the Michaelis-Menten equation, yielding kcat and KM values. The standard error for kcat/KM values was generated by factoring in the larger of the proportional standard errors for the individual kcat value and the KM value. For ADC/substrate combinations in which the KM was too large to accurately determine both kcat and KM values, the initial velocities at kcat/KM values were calculated from linear fits of vo in low [S] ranges (<0.08 * KM).

For test [8], the system named is ADC-7 in DH10B Escherichia coli. Description: MIC by broth microdilution, ADC-7 in DH10B E. coli. In kind it is cell-based. The following applies: DH10B E. coli expressing ADC-7 (non-Adup) from pBCSK−, FDC in iron-depleted cation-adjusted MH broth, mode of triplicate. The protocol: as §1, §2

Usually MIC stands for the least concentration at which growth counts as inhibited. As usually defined, the Ki is a dissociation constant, usually derived from enzyme kinetics or from competition with a known ligand. Read a low Ki as tighter binding. Regarding `CC(C)(O/N=C(\C(=O)N[C@@H]1C(=O)N2C(C(=O)[O-])=C(C[n+]3ccccc3)CS[C@H]12)c1csc(N)n1)C(=O)O` [CAZ, ceftazidime], the MIC in test [1] was found to be 128 µg/mL (≈ 234 µM); in [2], 2050 µg/mL (≈ 3750 µM); in test [3], 1020 µg/mL (≈ 1870 µM); in [4], 1020 µg/mL (≈ 1870 µM); in test [5], 64 µg/mL (≈ 117 µM); in test [6] it was 0.25 µg/mL (≈ 0.457 µM). Also, the values for the MIC in [7] and in [8] were no less than 1020 µg/mL and 64 µg/mL (≈ 117 µM), respectively. In addition, the “percentage of acylated adduct” value at ADC-30 came out at 20%. Affinity at ADC-172 was put at a Ki of 12.7 ± 1.45 µM. The “fold higher kcat/KM for CAZ versus FDC” value on ADC-33 is recorded as ~ 10 fold.
